Results: patent publication US4476120A, “Thiolic derivatives of erythromycin having therapeutic activity, and pharmaceutical compositions containing them” (Sigma Tau Indistrie Farmaceutiche Riunites, p.A, priority 1982, dated 1984)
≈ marks a conversion by molar mass, not a printed value. Like-named read-outs stand apart in the source and are kept apart here.

Columns and labels:
Staph. aureus SS 09 = assay type: cell-based; settings: Brain Heart Infusion, estolate and RV11-RV15 previously hydrolized, unit assumed
Br. abortus SS 7 = assay type: cell-based; settings: Brain Heart Infusion, estolate and RV11-RV15 previously hydrolized, unit assumed
Citrobacter SS 09 = assay type: cell-based; settings: Brain Heart Infusion, estolate and RV11-RV15 previously hydrolized, unit assumed
[1] = Mucolytic activity: obstruction of the bronchial tract after SO2 inhalation; assay type: in vivo, Sprague Dawley male rats; settings: SO2, 15 days
[2] = Hematic levels in the rat (absorption by oral route); settings: for absorption by oral route (in words): from in vivo antibacterial and pharmacodynamic tests
[3] = Hematic levels in the healthy volunteer; assay type: in vivo, healthy volunteers; settings: oral, 500 mg of erythromycin, average
Excerpt: For the dosing, the microbiological method using a B. subtilis strain was adopted.

[4] = in vivo; for Hematic levels in the rat: po, 100 mg/kg; for absorption by oral route (in words): rat
[5] = 0.30 hours, 100 mg/kg as erythromycin, average, 100 mg/kg, 18 min
[6] = 1 hour, 100 mg/kg as erythromycin, average, 100 mg/kg, 60 min
[7] = 4 hours, 100 mg/kg as erythromycin, average, 100 mg/kg, 240 min
[8] = 5 hours, 100 mg/kg as erythromycin, average, 100 mg/kg, 300 min
[9] = 6 hours, 100 mg/kg as erythromycin, average, 100 mg/kg, 360 min
[10] = 2 hours, 100 mg/kg as erythromycin, average, 100 mg/kg, 120 min
[11] = 3 hours, 100 mg/kg as erythromycin, average, 100 mg/kg, 180 min

CC[C@H]1OC(=O)[C@H](C)[C@@H](O[C@H]2C[C@@](C)(OC)[C@@H](O)[C@H](C)O2)[C@H](C)[C@@H](O[C@@H]2O[C@H](C)C[C@H](N(C)C)[C@H]2O)[C@](C)(O)C[C@@H](C)C(=O)[C@H](C)[C@@H](O)[C@]1(C)O [RV01, erythromycin alpha-mercaptosuccinate]
MIC (Staph. aureus SS 09): 0.1 µg/mL (≈ 0.136 µM) | MIC (Br. abortus SS 7): 6 µg/mL (≈ 8.18 µM) | MIC (Citrobacter SS 09): > 200 µg/mL | Partial obstruction (% incidence) ([1]; i.m., 250 mg/kg): 13.33% | Total obstruction, compact plug (% incidence) ([1]; i.m., 250 mg/kg): 26.66% | Total obstruction, nodular mass (% incidence) ([1]; i.m., 250 mg/kg): 6.66% | Total obstruction, pimply mass (% incidence) ([1]; i.m., 250 mg/kg): 13.33% | Hematic levels in the rat [2, 5]: 0.48 µg/mL | Hematic levels in the rat [2, 6]: 0.79 µg/mL | Hematic levels in the rat [2, 7]: 0.44 µg/mL | Hematic levels in the rat [2, 8]: 0.24 µg/mL | Hematic levels in the rat [2, 9]: 0.03 µg/mL | absorption by oral route (in words) [2]: poorly absorbed by oral route and in a rate like that of erythromycin base | concentration at 2 h ([2]; rat, blood, po, 100 mg/kg, Hematic levels in the rat, 2 hours, 100 mg/kg as erythromycin, average): 1180 ng/mL | concentration at 3 h ([2]; rat, blood, po, 100 mg/kg, Hematic levels in the rat, 3 hours, 100 mg/kg as erythromycin, average): 770 ng/mL

CC[C@H]1OC(=O)[C@H](C)[C@@H](O[C@H]2C[C@@](C)(OC)[C@@H](O)[C@H](C)O2)[C@H](C)[C@@H](O[C@@H]2O[C@H](C)C[C@H](N(C)C)[C@H]2O)[C@](C)(O)C[C@@H](C)C(=O)[C@H](C)[C@@H](O)[C@]1(C)O [RV03, erythromycyn-thiazolidin-carboxylate]
MIC (Staph. aureus SS 09): 0.05 µg/mL (≈ 0.0681 µM) | MIC (Br. abortus SS 7): 6 µg/mL (≈ 8.18 µM) | MIC (Citrobacter SS 09): > 200 µg/mL | Partial obstruction (% incidence) ([1]; i.m., 250 mg/kg): 6.66% | Total obstruction, compact plug (% incidence) ([1]; i.m., 250 mg/kg): 26.66% | Total obstruction, nodular mass (% incidence) ([1]; i.m., 250 mg/kg): 20% | Total obstruction, pimply mass (% incidence) ([1]; i.m., 250 mg/kg): 6.66% | Hematic levels in the rat [2, 5]: 0.58 µg/mL | Hematic levels in the rat [2, 6]: 0.71 µg/mL | Hematic levels in the rat [2, 10]: 1.30 µg/mL | Hematic levels in the rat [2, 11]: 0.77 µg/mL | Hematic levels in the rat [2, 7]: 0.59 µg/mL | Hematic levels in the rat [2, 8]: 0.36 µg/mL | Hematic levels in the rat [2, 9]: 0.07 µg/mL | absorption by oral route (in words) [2]: poorly absorbed by oral route and in a rate like that of erythromycin base

CC[C@H]1OC(=O)[C@H](C)[C@@H](O[C@H]2C[C@@](C)(OC)[C@@H](O)[C@H](C)O2)[C@H](C)[C@@H](O[C@@H]2O[C@H](C)C[C@H](N(C)C)[C@H]2O)[C@](C)(O)C[C@@H](C)C(=O)[C@H](C)[C@@H](O)[C@]1(C)O [RV04, erythromycin-S-carboxymethylcysteinate]
MIC (Staph. aureus SS 09): 0.025 µg/mL (≈ 0.0341 µM) | MIC (Br. abortus SS 7): 6 µg/mL (≈ 8.18 µM) | MIC (Citrobacter SS 09): > 200 µg/mL | Partial obstruction (% incidence) ([1]; i.m., 250 mg/kg): 13.33% | Total obstruction, compact plug (% incidence) ([1]; i.m., 250 mg/kg): 20% | Total obstruction, nodular mass (% incidence) ([1]; i.m., 250 mg/kg): 13.33% | Total obstruction, pimply mass (% incidence) ([1]; i.m., 250 mg/kg): 6.66% | Hematic levels in the rat [2, 5]: 0.50 µg/mL | Hematic levels in the rat [2, 6]: 0.71 µg/mL | Hematic levels in the rat [2, 10]: 1.30 µg/mL | Hematic levels in the rat [2, 11]: 1.04 µg/mL | Hematic levels in the rat [2, 7]: 0.68 µg/mL | Hematic levels in the rat [2, 8]: 0.43 µg/mL | Hematic levels in the rat [2, 9]: 0.15 µg/mL | absorption by oral route (in words) [2]: poorly absorbed by oral route and in a rate like that of erythromycin base

CC[C@H]1OC(=O)[C@H](C)[C@@H](O[C@H]2C[C@@](C)(OC)[C@@H](O)[C@H](C)O2)[C@H](C)[C@@H](O[C@@H]2O[C@H](C)C[C@H](N(C)C)[C@H]2O)[C@](C)(O)C[C@@H](C)C(=O)[C@H](C)[C@@H](O)[C@]1(C)O [RV05, erythromycin-N-acetylcysteinate]
MIC (Staph. aureus SS 09): 0.1 µg/mL (≈ 0.136 µM) | MIC (Br. abortus SS 7): 12 µg/mL (≈ 16.4 µM) | MIC (Citrobacter SS 09): > 200 µg/mL | Partial obstruction (% incidence) ([1]; i.m., 250 mg/kg): 6.66% | Total obstruction, compact plug (% incidence) ([1]; i.m., 250 mg/kg): 20% | Total obstruction, nodular mass (% incidence) ([1]; i.m., 250 mg/kg): 13.33% | Total obstruction, pimply mass (% incidence) ([1]; i.m., 250 mg/kg): 6.66% | Hematic levels in the rat [2, 5]: 0.44 µg/mL | Hematic levels in the rat [2, 6]: 0.83 µg/mL | Hematic levels in the rat [2, 10]: 1.41 µg/mL | Hematic levels in the rat [2, 11]: 1.03 µg/mL | Hematic levels in the rat [2, 7]: 0.59 µg/mL | Hematic levels in the rat [2, 8]: 0.40 µg/mL | Hematic levels in the rat [2, 9]: 0.08 µg/mL | absorption by oral route (in words) [2]: poorly absorbed by oral route and in a rate like that of erythromycin base

CCC(=O)O[C@H]1[C@H](O[C@@H]2[C@@H](C)[C@H](O[C@H]3C[C@@](C)(OC)[C@@H](O)[C@H](C)O3)[C@@H](C)C(=O)O[C@H](CC)[C@@](C)(O)[C@H](O)[C@@H](C)C(=O)[C@H](C)C[C@@]2(C)O)O[C@H](C)C[C@@H]1N(C)C [RV11, erythromycin-monopropionate-alpha-mercaptosuccinate]
MIC (Staph. aureus SS 09): 0.1 µg/mL (≈ 0.127 µM) | MIC (Br. abortus SS 7): 6 µg/mL (≈ 7.59 µM) | MIC (Citrobacter SS 09): > 200 µg/mL | Hematic levels in the healthy volunteer ([3]; 0.30 hours, 18 min): 1.28 µg/mL | Hematic levels in the healthy volunteer ([3]; 1 hour, 60 min): 1.70 µg/mL | Hematic levels in the healthy volunteer ([3]; 2 hours, 120 min): 2.16 µg/mL | Hematic levels in the healthy volunteer ([3]; 3 hours, 180 min): 1.48 µg/mL | Hematic levels in the healthy volunteer ([3]; 4 hours, 240 min): 1.21 µg/mL | Partial obstruction (% incidence) ([1]; oral, 500 mg/kg): 13.33% | Total obstruction, compact plug (% incidence) ([1]; oral, 500 mg/kg): 20% | Total obstruction, nodular mass (% incidence) ([1]; oral, 500 mg/kg): 6.66% | Total obstruction, pimply mass (% incidence) ([1]; oral, 500 mg/kg): 6.66% | Hematic levels in the rat ([4]; 0.3 h): 0.72 µg/mL | Hematic levels in the rat ([4]; 1 h): 1.64 µg/mL | Hematic levels in the rat ([4]; 2 h): 2.50 µg/mL | Hematic levels in the rat ([4]; 3 h): 1.31 µg/mL | Hematic levels in the rat ([4]; 4 h): 0.58 µg/mL | Hematic levels in the rat ([4]; 5 h): 0.38 µg/mL | Hematic levels in the rat ([4]; 6 h): 0.08 µg/mL | absorption by oral route (in words) [4]: absorbed by oral route in a rate practically analogous to that of erythromycin estolate

CCC(=O)O[C@H]1[C@H](O[C@@H]2[C@@H](C)[C@H](O[C@H]3C[C@@](C)(OC)[C@@H](O)[C@H](C)O3)[C@@H](C)C(=O)O[C@H](CC)[C@@](C)(O)[C@H](O)[C@@H](C)C(=O)[C@H](C)C[C@@]2(C)O)O[C@H](C)C[C@@H]1N(C)C [RV13, erythromycin-monopropionate-thiazolidin-carboxylate]
MIC (Staph. aureus SS 09): 0.1 µg/mL (≈ 0.127 µM) | MIC (Br. abortus SS 7): 6 µg/mL (≈ 7.59 µM) | MIC (Citrobacter SS 09): > 200 µg/mL | Hematic levels in the healthy volunteer ([3]; 0.30 hours, 18 min): 1.16 µg/mL | Hematic levels in the healthy volunteer ([3]; 1 hour, 60 min): 1.67 µg/mL | Hematic levels in the healthy volunteer ([3]; 2 hours, 120 min): 2.21 µg/mL | Hematic levels in the healthy volunteer ([3]; 3 hours, 180 min): 1.67 µg/mL | Hematic levels in the healthy volunteer ([3]; 4 hours, 240 min): 1.29 µg/mL | Partial obstruction (% incidence) ([1]; oral, 500 mg/kg): 20% | Total obstruction, compact plug (% incidence) ([1]; oral, 500 mg/kg): 20% | Total obstruction, nodular mass (% incidence) ([1]; oral, 500 mg/kg): 6.66% | Total obstruction, pimply mass (% incidence) ([1]; oral, 500 mg/kg): 13.33% | Hematic levels in the rat ([4]; 0.3 h): 0.81 µg/mL | Hematic levels in the rat ([4]; 1 h): 1.80 µg/mL | Hematic levels in the rat ([4]; 2 h): 2.47 µg/mL | Hematic levels in the rat ([4]; 3 h): 1.10 µg/mL | Hematic levels in the rat ([4]; 4 h): 0.72 µg/mL | Hematic levels in the rat ([4]; 5 h): 0.52 µg/mL | Hematic levels in the rat ([4]; 6 h): 0.12 µg/mL | absorption by oral route (in words) [4]: absorbed by oral route in a rate practically analogous to that of erythromycin estolate

CCC(=O)O[C@H]1[C@H](O[C@@H]2[C@@H](C)[C@H](O[C@H]3C[C@@](C)(OC)[C@@H](O)[C@H](C)O3)[C@@H](C)C(=O)O[C@H](CC)[C@@](C)(O)[C@H](O)[C@@H](C)C(=O)[C@H](C)C[C@@]2(C)O)O[C@H](C)C[C@@H]1N(C)C [RV15, erythromycin monopropionate N-acetylcysteinate]
MIC (Staph. aureus SS 09): 0.05 µg/mL (≈ 0.0633 µM) | MIC (Br. abortus SS 7): 6 µg/mL (≈ 7.59 µM) | MIC (Citrobacter SS 09): > 200 µg/mL | Hematic levels in the healthy volunteer ([3]; 0.30 hours, 18 min): 1.10 µg/mL | Hematic levels in the healthy volunteer ([3]; 1 hour, 60 min): 1.58 µg/mL | Hematic levels in the healthy volunteer ([3]; 2 hours, 120 min): 2.17 µg/mL | Hematic levels in the healthy volunteer ([3]; 3 hours, 180 min): 1.72 µg/mL | Hematic levels in the healthy volunteer ([3]; 4 hours, 240 min): 1.38 µg/mL | Partial obstruction (% incidence) ([1]; oral, 500 mg/kg): 6.66% | Total obstruction, compact plug (% incidence) ([1]; oral, 500 mg/kg): 20% | Total obstruction, nodular mass (% incidence) ([1]; oral, 500 mg/kg): 13.33% | Total obstruction, pimply mass (% incidence) ([1]; oral, 500 mg/kg): 6.66% | Hematic levels in the rat ([4]; 0.3 h): 0.85 µg/mL | Hematic levels in the rat ([4]; 1 h): 1.90 µg/mL | Hematic levels in the rat ([4]; 2 h): 2.68 µg/mL | Hematic levels in the rat ([4]; 3 h): 1.19 µg/mL | Hematic levels in the rat ([4]; 4 h): 0.55 µg/mL | Hematic levels in the rat ([4]; 5 h): 0.44 µg/mL | Hematic levels in the rat ([4]; 6 h): 0.03 µg/mL | absorption by oral route (in words) [4]: absorbed by oral route in a rate practically analogous to that of erythromycin estolate
